Laboratory results taken from ChEMBL document CHEMBL3272004, “Dibenz[b,e]oxepinalkanoic acids as nonsteroidal antiinflammatory agents. 3. omega-(6,11-Dihydro-11-oxodibenz[b,e]oxepin-2-yl)alkanoic acids” (J Med Chem, 1977).
Active and inactive are the calls of the source. The calls are words filed in the database; no cut-off is given here.

System: Rattus norvegicus
Assay: Antiinflammatory activity in Wistar rat assessed as inhibition of carrageenan-induced paw edema administered 1 hr prior to carrageenan challenge measured at 25 mg/kg, po after 3 hrs of carrageenan challenge relative to vehicle-treated control
Assay type: functional
Details: not given

Row | Compound | inhibition in vivo at 25 mg/kg [%]
1 | COC(=O)CCCc1ccc2c(c1)C(=O)c1ccccc1CO2 | 31.7
2 | CC(C)OC(=O)CCCc1ccc2c(c1)C(=O)c1ccccc1CO2 | 43.7

System: Rattus norvegicus
Assay: Induction of carrageenan-induced paw edema in Wistar rat administered 1 hr prior to carrageenan challenge measured at 50 mg/kg, po after 3 hrs of carrageenan challenge relative to vehicle-treated control
Assay type: organism-based
Set-up: dose 50 mg/kg, route oral
Details: in vivo

Row | Compound | Activity [%]
3 | O=C(O)CCc1ccc2c(c1)C(=O)c1ccccc1CO2 | 11

System: Rattus norvegicus
Assay: Antiinflammatory activity in po dosed Wistar rat assessed as inhibition of carrageenan-induced paw edema administered 1 hr prior to carrageenan challenge measured after 3 hrs of carrageenan challenge
Assay type: functional
Details: not given

Row | Compound | ED50 [mg/kg] | inhibition
4 | O=C(O)Cc1ccc2c(c1)C(=O)c1ccccc1CO2 [ISOXEPAC] | 6.4 | 
5 | O=C(O)CCCCCc1ccc(OCc2ccccc2C(=O)O)cc1 |  | inactive
6 | O=C(O)CCc1ccc(OCc2ccccc2C(=O)O)cc1 |  | inactive
7 | O=C(O)CCCc1ccc(OCc2ccccc2C(=O)O)cc1 |  | inactive
8 | O=C(O)CCCc1ccc2c(c1)C(=O)c1ccccc1CO2 | 10.1 | 
9 | COc1ccc2c(c1)c(CC(=O)O)c(C)n2C(=O)c1ccc(Cl)cc1 [INDOMETHACIN] | 4.4 | 
10 | O=C(O)CCCCCCCc1ccc(OCc2ccccc2C(=O)O)cc1 |  | inactive
11 | O=C(O)CCCCCc1ccc2c(c1)C(=O)c1ccccc1CO2 | 18.2 | 
12 | O=C(O)CCCCCCCc1ccc2c(c1)C(=O)c1ccccc1CO2 | 11.7 | 
